Laboratory results: patent publication US20080280879A1, “SUBSTITUTED HETEROCYCLIC DERIVATIVES AND THEIR PHARMACEUTICAL USE AND COMPOSITIONS” (priority 2007, published 2008)
Values after ≈ are worked out from the molar mass of the structure shown.

Tests used:
Format in all cases: cell-based, Staphylococcus aureus
[1] = system: Staph aureus 1146; assay: MIC, microtiter broth dilution (CLSI M7-A7), Assay 1, Table 12 column B, no serum; conditions: for MIC, column B: Staph aureus 1146, Assay 1, no serum; for MIC: Staphylococcus aureus, 1146, Staph aureus 1146, Assay 1, no serum
Summary of the method: (§1)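 MIC read as lowest drug level giving no macroscopically visible growth, μg/ml. Method: CLSI M7-A7 microtiter broth dilution, M100-S16 interpretation. Serum arm: inoculum in Mueller-Hinton Broth + 50% pooled inactivated human serum. Multiple runs → geometric mean.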

[2] = system: Staph aureus 2812; assay: MIC, microtiter broth dilution (CLSI M7-A7), Assay 1, Table 12 column E, no serum; conditions: for MIC, column E: Staph aureus 2812, Assay 1, no serum; for MIC: Staphylococcus aureus, 2812, Staph aureus 2812, Assay 1, no serum
Summary of the method: as §1

[3] = system: Staph aureus 1146; assay: MIC in Mueller-Hinton Broth with 50% pooled inactivated human serum, Assay 1, Table 12; conditions: for MIC, column C: Staph aureus 1146, Assay 1, 50% human serum; for MIC: Staphylococcus aureus, 1146, Staph aureus 1146, Assay 1, 50% human serum, read-out: MIC, column C
Summary of the method: as §1

[4] = system: Staph aureus 1095 MRSA; assay: MIC, microtiter broth dilution (CLSI M7-A7), Assay 1, Table 12 column A, no serum; conditions: Assay 1, no serum; for MIC: Staphylococcus aureus, MRSA
Summary of the method: as §1

[5] = system: Staph aureus 2811; assay: MIC, microtiter broth dilution (CLSI M7-A7), Assay 1, Table 12 column D, no serum; conditions: for MIC, column D: Staph aureus 2811, Assay 1, no serum; for MIC: Staphylococcus aureus, 2811, Staph aureus 2811, Assay 1, no serum
Summary of the method: as §1

| Compound | MIC, column B [1] | MIC, column E [2] | MIC, column C [3] [µg/mL] | MIC, column A [4] [µg/mL] | MIC, column D [5] | MIC [1] [µg/mL] | MIC [2] [µg/mL] | MIC [3] [µg/mL] | MIC [4] [µg/mL] | MIC [5] [µg/mL] |
| --- | --- | --- | --- | --- | --- | --- | --- | --- | --- | --- |
| COc1ccc2nccc([C@@H](O)CC[C@@H]3CCN(C4CC(c5c(F)cccc5F)C4C)C[C@@H]3C(=O)O)c2c1 (stereo partly drawn) [Example 67, (3R,4R)-1-[(2,3)-3-(2,6-difluorophenyl)-2-methylcyclobutyl]-4-[(3S)-3-hydroxy-3-(6-methoxyquinolin-4-yl)propyl]piperidine-3-carboxylic acid] | <=.0625 μg/ml | 0.125 µg/mL (≈ 0.238 µM) | 2 (≈ 3.81 µM) | 0.125 (≈ 0.238 µM) | <=.0625 μg/ml | – | – | – | – | – |
| COc1ccc2nccc([C@@H](O)CC[C@@H]3CCN(C4CC(c5c(F)ccc(Cl)c5F)C4)C[C@@H]3C(=O)O)c2c1 (stereo partly drawn) [Example 68, (3R,4R)-1-[3-(3-chloro-2,6-difluorophenyl)cyclobutyl]-4-[(3S)-3-hydroxy-3-(6-methoxyquinolin-4-yl)propyl]piperidine-3-carboxylic acid] | – | – | – | – | – | ≤ 0.0625 | ≤ 0.0625 | 4 (≈ 7.34 µM) | 0.25 (≈ 0.459 µM) | ≤ 0.0625 |
| COc1ccc2nccc([C@@H](O)CC[C@@H]3CCN(C4CC(c5c(F)cc(F)cc5F)C4)C[C@@H]3C(=O)O)c2c1 (stereo partly drawn) [Example 69, (3R,4R)-4-[(3S)-3-hydroxy-3-(6-methoxyquinolin-4-yl)propyl]-1-[3-(2,4,6-trifluorophenyl)cyclobutyl]piperidine-3-carboxylic acid] | – | – | – | – | – | 0.125 (≈ 0.236 µM) | 0.25 (≈ 0.473 µM) | 2 (≈ 3.78 µM) | 0.5 (≈ 0.946 µM) | 0.125 (≈ 0.236 µM) |
| COc1ccc2ncc(Cl)c(CCCC3(C(=O)O)CCN(C4CC(c5ccccc5)C4)C3)c2c1 (stereo not drawn) [Example 86, 3-[3-(3-chloro-6-methoxyquinolin-4-yl)propyl]-1-(3-phenylcyclobutyl)pyrrolidine-3-carboxylic acid] | – | – | – | – | – | ≤ 0.0625 | ≤ 0.0625 | 8 (≈ 16.7 µM) | ≤ 0.0625 | ≤ 0.0625 |
| COc1ccc2ncc(Cl)c(CCCC3(C(=O)O)CCN(C4CC(c5c(F)cccc5F)C4)C3)c2c1 (stereo not drawn) [Example 87, 3-[3-(3-chloro-6-methoxyquinolin-4-yl)propyl]-1-[3-(2,6-difluorophenyl)cyclobutyl] pyrrolidine-3-carboxylic acid] | – | – | – | – | – | ≤ 0.0625 | ≤ 0.0625 | 8 (≈ 15.5 µM) | ≤ 0.0625 | ≤ 0.0625 |
| COc1ccc2nccc(C(O)CC[C@@H]3CCN(C4CC(c5ccc(F)cc5)C4)C[C@@H]3C(=O)O)c2c1 (stereo partly drawn) [Example 88, (3R,4R)-1-[3-(4-fluorophenyl)cyclobutyl]-4-[3-hydroxy-3-(6-methoxyquinolin-4-yl)propyl]piperidine-3-carboxylic acid] | – | – | – | – | – | 0.5 (≈ 1.02 µM) | 0.25 (≈ 0.508 µM) | 4 (≈ 8.12 µM) | 1 (≈ 2.03 µM) | 0.25 (≈ 0.508 µM) |
| COc1ccc2nccc([C@@H](O)CC[C@@H]3CCN(C4CC(c5ccccc5F)C4)C[C@@H]3C(=O)O)c2c1 (stereo partly drawn) [Example 89, (3R,4R)-1-[3-(2-fluorophenyl)cyclobutyl]-4-[(3S)-3-hydroxy-3-(6-methoxyquinolin-4-yl)propyl]piperidine-3-carboxylic acid] | – | – | – | – | – | < 0.0625 | < 0.0625 | 0.5 (≈ 1.02 µM) | < 0.0625 | < 0.0625 |
| COc1ccc2nccc([C@H](O)CC[C@@H]3CCN(C4CC(c5ccccc5F)C4)C[C@@H]3C(=O)O)c2c1 (stereo partly drawn) [Example 90, (3R,4R)-1-[3-(2-fluorophenyl)cyclobutyl]-4-[(3R)-3-hydroxy-3-(6-methoxyquinolin-4-yl)propyl]piperidine-3-carboxylic acid] | – | – | – | – | – | < 0.0625 | < 0.0625 | 1 (≈ 2.03 µM) | < 0.0625 | < 0.0625 |
| COc1ccc2nccc([C@H](O)CC[C@@H]3CCN(C4CC(c5cccc(F)c5)C4)C[C@@H]3C(=O)O)c2c1 (stereo partly drawn) [Example 91, (3R,4R)-1-[3-(3-fluorophenyl)cyclobutyl]-4-[(3R)-3-hydroxy-3-(6-methoxyquinolin-4-yl)propyl]piperidine-3-carboxylic acid] | – | – | – | – | – | 0.25 (≈ 0.508 µM) | 0.25 (≈ 0.508 µM) | 8 (≈ 16.2 µM) | 0.5 (≈ 1.02 µM) | 0.25 (≈ 0.508 µM) |
| COc1ccc2nccc([C@@H](O)CC[C@@H]3CCN(C4CC(c5cccc(F)c5)C4)C[C@@H]3C(=O)O)c2c1 (stereo partly drawn) [Example 92, (3R,4R)-1-[3-(3-fluorophenyl)cyclobutyl]-4-[(3S)-3-hydroxy-3-(6-methoxyquinolin-4-yl)propyl]piperidine-3-carboxylic acid] | – | – | – | – | – | ≤ 0.0625 | ≤ 0.0625 | 0.5 (≈ 1.02 µM) | 0.125 (≈ 0.254 µM) | ≤ 0.0625 |
| COc1ccc2nccc(CCCC3(C(=O)O)CCN(C4CC(c5ccccc5)C4)CC3)c2c1 (stereo not drawn) [Example 93, 4-[3-(6-methoxyquinolin-4-yl)propyl]-1-(3-phenylcyclobutyl)piperidine-4-carboxylic acid] | – | – | – | – | – | 2 (≈ 4.36 µM) | 1 (≈ 2.18 µM) | > 64 | 2 (≈ 4.36 µM) | 2 (≈ 4.36 µM) |
| COc1ccc2nccc(C(O)CC[C@@H]3CCN(C4CC(O)(c5ccccc5)C4)C[C@@H]3C(=O)O)c2c1 (stereo partly drawn) [Example 94, (3R,4R)-4-[3-hydroxy-3-(6-methoxyquinolin-4-yl)propyl]-1-(3-hydroxy-3-phenylcyclobutyl)piperidine-3-carboxcylic acid] | 32 µg/mL (≈ 65.2 µM) | >64 µg/mL | >64 | >64 | >64 µg/mL | – | – | – | – | – |
| COc1ccc2nccc(C(O)CC[C@@H]3CCN(C4CCC(c5ccc(Cl)cc5)C4)C[C@@H]3C(=O)O)c2c1 (stereo partly drawn) [Example 97, (3R,4R)-1-[3-(4-chlorophenyl)cyclopentyl]-4-[3-hydroxy-3-(6-methoxyquinolin-4-yl)propyl]piperidine-3-carboxylic acid] | – | – | – | – | – | 2 (≈ 3.82 µM) | 8 (≈ 15.3 µM) | > 64 | 32 (≈ 61.2 µM) | 8 (≈ 15.3 µM) |
| COc1ccc2ncc(F)c(CCCC3(C(=O)O)CCN(C4CC(c5nc(C)no5)C4)CC3)c2c1 (stereo not drawn) [Example 98, 4-[3-(3-fluoro-6-methoxyquinolin-4-yl)propyl]-1-[3-(3-methyl-1,2,4-oxadiazol-5-yl)cyclobutyl]piperidine-4-carboxylic acid] | – | – | – | – | – | 2 (≈ 4.14 µM) | 4 (≈ 8.29 µM) | 64 (≈ 133 µM) | 4 (≈ 8.29 µM) | 2 (≈ 4.14 µM) |
| COC(=O)[C@H]1CN(C2CC(c3nnc(C)o3)C2)CC[C@H]1CCC(O)c1ccnc2ccc(OC)cc12 (stereo partly drawn) [Example 99, methyl (3R,4R)-4-[3-hydroxy-3-(6-methoxyquinolin-4-yl)propyl]-1-[3-(5-methyl-1,3,4-oxadiazol-2-yl)cyclobutyl]piperidine-3-carboxylate] | – | – | – | – | – | 16 (≈ 32.3 µM) | > 64 | > 64 | 64 (≈ 129 µM) | 64 (≈ 129 µM) |
| COc1ccc2ncc(Cl)c(CCNC3(C(=O)O)CCN(C4CC(c5ccccc5)C4)CC3)c2c1 (stereo not drawn) [Example 100, 4-{[2-(3-chloro-6-methoxyquinolin-4-yl)ethyl]amino}-1-(3-phenylcyclobutyl)piperidine-4-carboxylic acid] | – | – | – | – | – | 0.5 (≈ 1.01 µM) | 0.5 (≈ 1.01 µM) | > 64 | 0.5 (≈ 1.01 µM) | 0.25 (≈ 0.506 µM) |
| COc1ccc2ncc(Cl)c(CCNC3CCN(C4CC(c5ccccc5)C4)C(C(=O)O)C3)c2c1 (stereo not drawn) [Example 101, (2,4)-4-{[2-(3-chloro-6-methoxyquinolin-4-yl)ethyl]amino}-1-(3-phenylcyclobutyl)piperidine-2-carboxylic acid] | 0.125 µg/mL (≈ 0.253 µM) | <=.0625 μg/ml | 2 (≈ 4.05 µM) | 0.125 (≈ 0.253 µM) | <=.0625 μg/ml | – | – | – | – | – |
| COc1ccc2nccc(C(O)CC[C@@H]3CCN(C4CC(c5nc(C)no5)C4)C[C@@H]3C(=O)O)c2c1 (stereo partly drawn) [Example 102, (3R,4R)-4-[3-hydroxy-3-(6-methoxyquinolin-4-yl)propyl]-1-[3-(3-methyl-1,2,4-oxadiazol-5-yl)cyclobutyl]piperidine-3-carboxylic acid] | – | – | – | – | – | 16 (≈ 33.3 µM) | 16 (≈ 33.3 µM) | 64 (≈ 133 µM) | 16 (≈ 33.3 µM) | 8 (≈ 16.6 µM) |
